Test results published in publication PMC9317397, “Design and Synthesis of Hepatitis B Virus (HBV) Capsid Assembly Modulators and Evaluation of Their Activity in Mammalian Cell Model” (Pharmaceuticals, 2022).
pEC50: −log10 of the molar value. “Also recorded” adds a separate entry of the source. Read-outs that look alike come from different tables or passages of the source.

Key:
[1] = biological target: HBV capsid assembly (full-length HBc protein, genotype D1) (Hepatitis B virus genotype D subtype ayw, UniProt P03146, A80I/T33N/V74G); assay: HBV capsid assembly in SFV1/HBc-infected HBc-producing BHK-21 cells, native agarose gel anti-HBc immunoblot; format: cell-based; details: HBc-producing BHK-21 cells; for Effect on capsid production / mobility in initial test: 1–50 μM, 24 h (Figure 5); for Effect on Capsid Assembly / Effect on Capsid Assembly, Starting Concentration: 24 h, native agarose immunoblot; for Type of effect on HBV capsid assembly in dose-dependent experiments: 0.1–50 µM, 24 h (Figure 6)
HBV capsid assembly (full-length HBc protein, genotype D1), sequence (P03146 whole entry A80I/T33N/V74G, looked up): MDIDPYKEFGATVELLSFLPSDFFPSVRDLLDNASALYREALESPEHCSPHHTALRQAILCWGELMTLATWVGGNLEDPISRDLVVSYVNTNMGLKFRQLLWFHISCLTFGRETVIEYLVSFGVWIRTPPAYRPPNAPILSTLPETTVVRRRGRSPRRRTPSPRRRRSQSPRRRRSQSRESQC

[2] = system: BHK-21 cells; assay: Cytopathic effect (cell morphology, proliferation, trypan blue) in non-infected BHK-21 cells; format: cell-based, hamster; details: 24 h
Experimental: To define HAP compound non-toxic concentrations for initial studies, non-infected BHK-21 cells were incubated with compounds at four different concentrations for 24 h (25 μM, 50 μM, 100 μM, and 200 μM), and the cytopathic effects were evaluated by analysis of cell morphology and proliferation changes. […] 1c, 1j, 1k and 4a, and 7b. The reference comp.
The cytopathic effect of the compounds was estimated by phase contrast microscopy and standard trypan blue staining, and the cells were counted using an automatic cell counter (Invitrogen). BHK-21 and HepG2.2.15 cells were incubated for 24 h with the studied compounds at […] (25, 50, 100, 150 and 200 μM) and the cell morphology was controlled under microscope to evaluate cytopathic effects (Table 1, the highest non-toxic concentration).

[3] = MTT viability assay in BHK-21 cells; format: cell-based, hamster; details: hamster, 200 µM, read-out: Cell viability, percentage from untreated cells
Experimental: BHK-21 cells were incubated with different concentrations (6.125, 12.25, 25, 50, 100, and 200 µM) of the respective compounds and the cell viability was calculated as a percentage from untreated cells (100%) (Figure 7). In general, the results confirmed the morphological observation of relatively low cytotoxicity for tested compounds at concentrations below 100 µM.
Additionally, cell viability was determined by tetrazolium salt-based assay using the Vybrant MTT Cell Proliferation kit (Thermo Fisher Scientific, Waltham, MA, USA) or more sensitive CCK-8 kit (Abcam). First, the cell numbers and protocol were optimized for BHK-21 and HepG2.2.15 cells, as indicated in the MTT assay kit or CCK-8 reagent manufacturer’s protocol, and standard curves with OD values were created and evaluated.
In order to evaluate the toxicity of selected HAP compounds in the medium, 1.3 × 10^4 BHK-21 were seeded per well in 96-well plates and treated with the studied compounds for 24 h at concentrations 6.125; 12.25; 25; 50; 100; and 200 μM. Control cells without HAP compounds and MTT-free cell media were included in the experiments. The MTT test was performed according to the full protocol version (Thermo Fisher Scientific).

[4] = system: HBV; details: HepG2.2.15 cells; for HBV DNA, % from control: six days, secreted virion DNA
[5] = system: HepG2.2.15 cells; assay: MTT viability test in HepG2.2.15 cells (TC50); format: cell-based, human; details: 48 h, 0–200 µM
Experimental: In order to compare the cytotoxicity of compounds 1d and 1e in HBV producing HepG2.2.15 cells, the toxic concentrations (TC50 values) were estimated (Figure 9B,C).
In order to calculate the median of the toxic concentration (TC50) of the compounds, 1.33 × 10^5 HepG2.2.15 cells per well were seeded into a 24-well plate. After 24 h, the cells were treated with the test compounds at different concentrations (0, 50, 100, 150, 200 μM) and incubated for 48 h at 37 °C. All experiments were carried out in three identical repeats and the coefficient of variation and standard deviation were calculated from at least two independent experiments.
The percent inhibition at each compound concentration was calculated by normalization of the signals to the signals from non-treated HepG2.2.15 cells. […] Data points and error bars represent the means and standard deviations from at least two independent experiments, respectively. Comparisons between data groups were performed using the unpaired t test, with p values < 0.05 being considered statistically significant.

[6] = system: HBV; assay: microbe, parasite or virus in culture; details: Hepatitis B virus, HepG2.2.15, 144 h, read-out: EC50 (50% reduction of HBV DNA), HepG2.2.15 cells, six days, 0–20 µM
[7] = non-infected BHK-21 cells, no noticeable cytopathic effect

Row | SMILES | Effect on capsid production / mobility in initial test [1] | Effect on Capsid Assembly [1] | melting point | Effect on Capsid Assembly, Starting Concentration [1] | further results
1 | COC(=O)C1=C(C[n+]2ccccc2)NC(c2ncc(F)cc2F)=NC1c1ccc(F)cc1Cl (stereo not shown) [3a] | did not induce a significant effect on the capsid mobility | No effect | 173 to 174 °C |  | 
2 | CCOCCOC(=O)C1=C(C)NC(c2ncc(F)cc2F)=NC1c1ccc(F)cc1Cl (stereo not shown) (hydrate or solvate) [1d] |  |  | 143 to 144 °C |  | 
3 | CC1=C(C(=O)Nc2ccccn2)C(c2ccc(F)cc2Cl)N=C(c2ncc(F)cc2F)N1 (stereo not shown) (hydrate or solvate) [1h] |  |  | 152 to 153 °C |  | 
4 | CCOC(=O)C1=C(C)NC(c2nccs2)=NC1c1ccc(F)cc1 (stereo not shown) [1j] | misfolding of the HBV capsid | HBc accumulation, aggregates/or incorrect capsid structures |  | 5 µM | Type of effect on HBV capsid assembly in dose-dependent experiments [1]: dose-dependent HBc products accumulation
5 | CCCOCCOC(=O)C1=C(C)NC(c2ncc(F)cc2F)=NC1c1ccc(F)cc1Cl (stereo not shown) (hydrate or solvate) [1f] |  |  | 149 to 150 °C |  | 
6 | CC1=C(C(=O)OCCOC(C)C)C(c2ccc(F)cc2Cl)N=C(c2ncc(F)cc2F)N1 (stereo not shown) (hydrate or solvate) [1e] |  |  | 156 to 157 °C |  | 
7 | CCOC(=O)C1=C(C)NC(c2nccs2)=NC1c1ccc(F)cc1 (stereo not shown) (hydrate or solvate) [1j] |  |  | 114 to 115 °C |  | 
8 | CCCOCCOC(=O)C1=C(C)NC(c2ncc(F)cc2F)=NC1c1ccccc1OC(F)F (stereo not shown) (hydrate or solvate) [1g] |  |  | 164 to 165 °C |  | 
9 | O=C1OCC2=C1C(c1ccc(F)cc1Cl)N=C(c1ncc(F)cc1F)N2 (stereo not shown) [compound 5] | misfolding of the HBV capsid | HBc accumulation, aggregates/or incorrect capsid structures |  | 50 µM | Type of effect on HBV capsid assembly in dose-dependent experiments [1]: dose-dependent HBc products accumulation
10 | COc1ccccc1NC(=O)C1=C(C)NC(c2ncc(F)cc2F)=NC1c1ccc(F)cc1Cl (stereo not shown) [1i] |  | Dose dependent capsid signal decrease |  | 20 µM | The Highest Non-Toxic Concentration [2, 7]: 50 µM; Type of effect on HBV capsid assembly in dose-dependent experiments [1]: dose-dependent HBc signal decrease; viability at 24 h, 200 µM [3]: 71%
11 | CCCCCCCCCCCCCCCC[n+]1ccc(C)cc1.Cc1ccc(S(=O)(=O)[O-])cc1 [7b] | did not induce a significant effect on the capsid mobility | No effect |  |  | 
12 | CC1=C(C(=O)O)C(c2ccc(F)cc2Cl)N=C(c2ncc(F)cc2F)N1 (stereo not shown) [1b] | inhibitory effect | Dose dependent capsid signal decrease |  | 10 µM | The Highest Non-Toxic Concentration [2, 7]: 50 µM; Type of effect on HBV capsid assembly in dose-dependent experiments [1]: dose-dependent HBc signal decrease; viability at 24 h, 200 µM [3]: > 90%; HBV DNA, % from control ([4]; 10 µM): 74.3%
13 | CCCCCC[n+]1ccc(C)cc1.Cc1ccc(S(=O)(=O)[O-])cc1 [7a] | did not induce a significant effect on the capsid mobility | No effect |  |  | The Highest Non-Toxic Concentration [2, 7]: 50 µM
14 | CCCOCCOC(=O)C1=C(C)NC(c2ncc(F)cc2F)=NC1c1ccc(F)cc1Cl (stereo not shown) [1f] | misfolding of the HBV capsid | HBc accumulation, aggregates/or incorrect capsid structures |  | 10 µM | The Highest Non-Toxic Concentration [2, 7]: 100 µM; Type of effect on HBV capsid assembly in dose-dependent experiments [1]: dose-dependent HBc products accumulation; viability at 24 h, 200 µM [3]: > 90%; HBV DNA, % from control ([4]; 20 µM): 52.5%
15 | COc1ccccc1NC(=O)C1=C(C)NC(c2ncc(F)cc2F)=NC1c1ccc(F)cc1Cl (stereo not shown) (hydrate or solvate) [1i] |  |  | 149 to 150 °C |  | 
16 | CCOC(=O)c1c(C)nc(-c2nccs2)nc1-c1ccccc1 [4a] | did not induce a significant effect on the capsid mobility | No effect | 93 to 94 °C |  | 
17 | CC1=C(C(=O)OCCOC(C)C)C(c2ccc(F)cc2Cl)N=C(c2ncc(F)cc2F)N1 (stereo not shown) [1e] | misfolding of the HBV capsid | Dose dependent capsid signal decrease |  | 10 µM | The Highest Non-Toxic Concentration [2, 7]: 100 µM; Effect on capsids at lower concentrations ([1]; 5 μM and 10 μM): capsid stabilization and accumulation; Effect on capsids at higher concentrations ([1]; 20 μM and 50 μM): capsids were almost non-detectable; Type of effect on HBV capsid assembly in dose-dependent experiments [1]: dose-dependent HBc signal decrease; viability at 24 h, 200 µM [3]: > 90%; TC50 [5]: 98 µM; SI (TC50/EC50) [4]: 11; HBV DNA, % from control ([4]; 20 µM): 6.3%; Decrease in the amount of HBV virion release compared with control ([4]; Figure 8): ≤ 93.5%; pEC50 [6]: 5.04
18 | CCCOCCOC(=O)C1=C(C)NC(c2ncc(F)cc2F)=NC1c1ccccc1OC(F)F (stereo not shown) [1g] | did not induce a significant effect on the capsid mobility; also recorded: some increase in capsid band signal | Insignificant capsid amount increases |  |  | The Highest Non-Toxic Concentration [2, 7]: 50 µM
19 | CCOC(=O)C1=C(C)NC(c2nccs2)=CC1c1ccc(F)cc1Cl (stereo not shown) [compound 6] | did not induce a significant effect on the capsid mobility | No effect |  |  | 
20 | COC(=O)C1=C(C[N+]2(C)CCOCC2)NC(c2ncc(F)cc2F)=NC1c1ccc(F)cc1Cl (stereo not shown) [3c] | did not induce a significant effect on the capsid mobility | No effect | 181 to 182 °C |  | The Highest Non-Toxic Concentration [2, 7]: 150 µM
21 | CC1=C(C(=O)Nc2ccccn2)C(c2ccc(F)cc2Cl)N=C(c2ncc(F)cc2F)N1 (stereo not shown) [1h] |  | Dose dependent capsid signal decrease |  | 20 µM | The Highest Non-Toxic Concentration [2, 7]: 150 µM; Type of effect on HBV capsid assembly in dose-dependent experiments [1]: dose-dependent HBc signal decrease; viability at 24 h, 200 µM [3]: > 90%
22 | CCOC(=O)C1=C(C)NC(c2nccs2)=NC1c1ccccc1 (stereo not shown) [1k] | misfolding of the HBV capsid | Dose dependent HBc accumulation, aggregates/or incorrect capsid structures |  | 1 µM | 
23 | CCOC(=O)C1=C(C)NC(c2ncc(F)cc2F)=NC1c1ccc(F)cc1 (stereo not shown) (hydrate or solvate) [1c] |  |  | 126 to 127 °C |  | 
24 | COC(=O)C1=C(C[N+]2(C)CCCC2)NC(c2ncc(F)cc2F)=NC1c1ccc(F)cc1Cl (stereo not shown) [3b] | did not induce a significant effect on the capsid mobility | No effect | 167 to 168 °C |  | 
25 | COC(=O)C1=C(C[N+]23CCC(CC2)C(O)C3)NC(c2ncc(F)cc2F)=NC1c1ccc(F)cc1Cl (stereo not shown) [3d] | inhibitory effect | Capsid signal decrease, possible changes in NS packaging |  |  | The Highest Non-Toxic Concentration ([2]; hamster): 100 µM
26 | CCOC(=O)C1=C(C)NC(c2ncc(F)cc2F)=NC1c1ccc(F)cc1 (stereo not shown) [1c] | inhibitory effect | Capsid signal decrease |  | 5 µM | 
27 | CCOC(=O)C1=C(C)NC(c2nccs2)=NC1c1ccccc1 (stereo not shown) (hydrate or solvate) [1k] |  |  | 129 to 130 °C |  | 
28 | CCOC(=O)c1c(C)nc(-c2nccs2)nc1-c1ccc(F)cc1 [4b] | did not induce a significant effect on the capsid mobility | No effect |  |  | 
